According to patent US7232845B2, “Active substance combinations comprising insecticidal and acaricidal properties” (Bayer CropScience AG, priority 2000, dated 2007):

Test system: whitefly Bemisia tabaci
Test: Bemisia test (cotton plants infested with whitefly, immersed in active compound preparation)
Type: in vivo
Settings: single active compound, 4 ppm; eggs, larvae and pupae on cotton plants (Gossypium hirsutum), immersion
Excerpt: The expected action for a given combination of two active compounds can be calculated as follows, using the formula of S. R. Colby, Weeds 15 (1967), 20–22:
• X is the efficacy, expressed as % of the untreated control, when employing active compound A at an application rate of m g/ha or in a concentration of m ppm, • Y is the efficacy, expressed as % of the untreated control, when employing active compound B at an application rate of n g/ha or in a concentration of n ppm and • E is the efficacy, expressed as % of the untreated control, when employing active compounds A and B at application rates of m and n g/ha or in a concentration of m and n ppm, then
[formula] If the actual insecticidal kill rate exceeds the calculated value, the action of the combination is superadditive, i.e. a synergistic effect is present. In this case, the actually observed insecticidal kill rate must exceed the value calculated using the above formula for the expected insecticidal kill rate (E).
• Solvent: 7.5 parts by weight of dimethylformamide • Emulsifier: 2.5 parts by weight of alkylaryl polyglycol ether
To produce a suitable preparation of active compound, 1 part by weight of active compound is mixed with the stated amounts of solvent and emulsifier, and the concentrate is diluted with water to the desired concentration.
Cotton plants (Gossypium hirsutum) which are infested with eggs, larvae and pupae of the whitefly Bemisia tabaci are immersed in a preparation of active compound of the desired concentration.
After the desired period of time, the kill in % is determined. 100% means that all animals have been killed; 0% means that none of the animals have been killed.

**Q.** For `Cc1c(COC(=O)C2C(/C=C(\Cl)C(F)(F)F)C2(C)C)cccc1-c1ccccc1` (stereo not drawn) [Bifenthrin, bifenthrin], which “Kill rate in % after 10^d” value is on record?
**A.** 0%

**Q.** `CC1(C)C(C=C(Cl)Cl)C1C(=O)OC(C#N)c1ccc(F)c(Oc2ccccc2)c1` (stereo not drawn) [Cyfluthrin, cyfluthrin] was tested. Which “Kill rate in % after 10^d” value did it give?
**A.** 0%

**Q.** Which “Kill rate in % after 10^d” value does the source give for `Cc1cc(C)c(C2=C(OC(=O)CC(C)(C)C)C3(CCCC3)OC2=O)c(C)c1` [Ex. (I-b-1)] here?
**A.** 0%
